# pIC50, pKi: −log10 of the molar value. Structures can show the parent of a compound that is named as a salt.
# Legend:
# CDK2/cyclin A = target: T1, CDK2/cyclin A (Homo sapiens, UniProt P24941); test: Inhibition of CDK2/cyclin A retinoblastoma kinase activity (Ki; % inhibition); assay type: biochemical; conditions: for pKi: apparent Ki, CDK2/cyclin A, Rb substrate
# T1 construct: made in house; host or cells: CDK2: insect cells (baculovirus); cyclin A: E. coli
# Procedure: (§1) Cyclin-dependent kinase activity was measured by quantifying the enzyme-catalyzed, time-dependent incorporation of radioactive phosphate from [^32P]ATP or [^33P]ATP into a protein substrate. Unless noted otherwise, assays were performed in 96-well plates in a total volume of 50 μL, in the presence of 10 mM HEPES (N-[2-hydroxyethyl]piperazine-N′-[2-ethanesulfonic acid]) (pH 7.4), 10 mM MgCl2, 25 μM adenosine triphosphate (ATP), 1 mg/mL ovalbumin, 5 μg/mL leupeptin, 1 mM dithiothreitol, 10 mM β-glycerophosphate, 0.1 mM sodium vanadate, 1 mM sodium fluoride, 2.5 mM ethylene glycol-bis(β-aminoethyl ether)-N,N,N′N′-tetraacetic acid (EGTA), 2% (v/v) dimethylsulfoxide, and 0.03-0.4 μCi [^32/33P]ATP per reaction. Reactions were initiated with enzyme, incubated at 30° C., and terminated after 20 minutes by the addition of ethylenediaminetetraacetic acid (EDTA) to 250 mM. The phosphorylated substrate was then captured on a nitrocellulose or phosphocellulose membrane using a 96-well filtration manifold, and unincorporated radioactivity was removed by repeated washing with 0.85% phosphoric acid. Radioactivity was quantified by exposing the dried membranes to a phosphorimager.
# (§2) Compounds from combinatorial libraries were screened from 96-well plates for % inhibition of CDK activity at 30 nM theoretical compound concentration. Inhibition was measured relative to control wells that contained all reaction components including 2% (v/v) DMSO but no compound, after subtraction of background radioactivity measured in the absence of enzyme. Apparent Ki values of discrete compounds were measured by assaying enzyme activity in the presence of different inhibitor compound concentrations and subtracting the background radioactivity measured in the absence of enzyme. The kinetic parameters (kcat, Km for ATP) were measured for each enzyme under the usual assay conditions by determining the dependence of initial rates on ATP concentration. Inhibition data were fit to an equation for competitive inhibition using Kaleidagraph (Synergy Software), or were fit to an equation for competitive tight-binding inhibition using the software KineTic (BioKin, Ltd.).
# CDK2 was purified using published methodology (Rosenblatt et al., “Purification and Crystallization of Human Cyclin-dependent Kinase 2,” J. Mol. Biol., 230, 1993, pp. 1317-1319) from insect cells that had been infected with a baculovirus expression vector. […] A complex of CDK2 and proteolyzed cyclin A was prepared and purified by gel filtration. The substrate for this assay was the same Rb substrate fragment used for the CDK4 assays, and the methodology of the CDK2/delta cyclin A and the CDK4/delta cyclin D3 assays was essentially the same, except that CDK2 was present at 10 nM or 19 nM. The duration of the assay was 60 or 75 minutes, during which the time-dependence of product formation was linear and initial rate conditions were met.
# human CDK4/cyclin D3 = target: T2, human CDK4/cyclin D3 (Homo sapiens, UniProt P11802); test: Inhibition of CDK4/cyclin D retinoblastoma kinase activity (Ki; % inhibition); assay type: biochemical; conditions: for pKi: apparent Ki, CDK4/cyclin D3, Rb substrate
# T2 construct: made in house; host or cells: insect cells co-infected with baculovirus vectors
# Procedure: as §1, §2
# A complex of human CDK4 and genetically truncated (1-264) cyclin D3 was purified using traditional biochemical chromatographic techniques from insect cells that had been co-infected with the corresponding baculovirus expression vectors (see e.g., Meijer and Kim, “Chemical Inhibitors of Cyclin-Dependent Kinases,” Methods in Enzymol., 283 (1997), pp. 113-128.). The enzyme complex (5 nM) was assayed with 0.3-0.5 μg of purified recombinant retinoblastoma protein fragment (Rb) as a substrate. The engineered Rb fragment (residues 386-928 of the native retinoblastoma protein; 62.3 kDa) contains the majority of the phosphorylation sites found in the native 106-kDa protein, as well as a tag of six histidine residues for ease of purification. Phosphorylated Rb substrate was captured by microfiltration on a nitrocellulose membrane and quantified using a phosphorimager as described above. For measurement of tight-binding inhibitors, the assay duration was extended to 60 minutes, during which the time-dependence of product formation was linear and initial rate conditions were met.
# HCT-116 cell line = test: Inhibition of cell growth, MTT tetrazolium salt assay; assay type: cell-based; conditions: for pIC50: Homo sapiens, HCT-116, 120 h, MTT, three to five days
# Procedure: Inhibition of cell growth was measured using the tetrazolium salt assay, which is based on the ability of viable cells to reduce 3-(4,5-dimethylthiazol-2-yl)-2,5-[2H]-diphenyltetrazolium bromide (MTT) to formazan (Mossman, Journal of Immunological Methods, 65, (1983), pp. 55-58). The water-insoluble purple formazan product was then detected spectrophotometrically. The HCT-116 cell line was used as a representative cancer cell line and grown in 96-well plates. Cells were plated in McCoy's 5A Medium at a volume of 135 μl/well. Plates were incubated for four hours before addition of inhibitor compounds. Different concentrations of inhibitor compounds were added in 0.5% (v/v) dimethylsulfoxide (15 μL/well), and cells were incubated at 37° C. (5% CO2) for three to five days. At the end of the incubation, MTT was added to a final concentration of 0.2 mg/mL, and cells were incubated for 4 hours more at 37° C. After centrifugation of the plates and removal of medium, the absorbance of the formazan (solubilized in dimethylsulfoxide) was measured at 540 nm. The concentration of inhibitor compound causing 50% (IC50) or 90% ([…]) inhibition of growth was determined from the linear portion of a semi-log plot of inhibitor concentration versus percent inhibition. All results were compared to control cells treated only with 0.5% (v/v) dimethylsulfoxide.
# [1] = HCT-116 cells, 0.25 μM compound
# T2 sequence (P11802 whole entry): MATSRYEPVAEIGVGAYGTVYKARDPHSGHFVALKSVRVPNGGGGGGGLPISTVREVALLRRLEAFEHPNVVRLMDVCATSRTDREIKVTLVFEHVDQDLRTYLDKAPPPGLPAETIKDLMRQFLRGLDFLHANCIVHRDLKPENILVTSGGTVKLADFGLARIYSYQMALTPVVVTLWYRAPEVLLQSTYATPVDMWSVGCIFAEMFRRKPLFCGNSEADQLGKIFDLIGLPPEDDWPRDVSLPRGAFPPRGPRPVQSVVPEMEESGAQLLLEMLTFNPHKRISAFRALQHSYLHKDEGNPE
# T2 sequence (P30281 1-264 partner limits assumed): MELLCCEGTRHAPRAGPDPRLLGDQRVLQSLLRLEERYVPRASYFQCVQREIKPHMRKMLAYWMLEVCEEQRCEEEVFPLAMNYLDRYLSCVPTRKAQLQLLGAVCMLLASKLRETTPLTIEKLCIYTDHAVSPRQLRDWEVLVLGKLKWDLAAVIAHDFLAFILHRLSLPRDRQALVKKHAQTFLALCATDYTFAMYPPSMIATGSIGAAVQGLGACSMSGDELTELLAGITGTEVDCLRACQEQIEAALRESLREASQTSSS
CDK2 % Inhibition at 0.03 μM (CDK2/cyclin A; at 0.03 μM) [%],CDK4 % Inhibition at 0.03 μM (human CDK4/cyclin D3; at 0.03 μM) [%],CDK2 % Inhibition at 0.03 μM (CDK2/cyclin A; 0.03 μM compound) [%],CDK4 % Inhibition at 0.03 μM (human CDK4/cyclin D3; 0.03 μM compound) [%],Structure (SMILES),"HCT-116 % Inhibition at 0.25 μM (HCT-116 cell line; HCT-116, at 0.25 μM) [%]","HCT-116 % Inhibition at 0.1 μM (HCT-116 cell line; HCT-116 cells, 0.1 μM compound) [%]",HCT-116 % Inhibition at 0.25 μM (HCT-116 cell line; [1]) [%],further results
2,−3,–,–,COc1ccc(C(F)(F)F)cc1NC(=O)c1ccc(Nc2nc(N)c(C(=O)c3c(F)cccc3F)s2)cc1 [Example G22],50,–,–,–
15,20,–,–,Cc1ccc(CCNC(=O)c2ccc(Nc3nc(N)c(C(=O)c4c(F)cccc4F)s3)cc2)cc1 [Example G111],52,–,–,"HCT-116 % Inhibition at 0.1 μM (HCT-116 cell line; HCT-116, at 0.1 μM): 0%"
–,–,–,–,"Nc1nc(Nc2ccc(C(=O)NCCn3ccnc3)cc2)sc1C(=O)c1c(F)cccc1F [Example A55, 4-[4-Amino-5-(2,6-difluoro-benzoyl)-thiazol-2-ylamino]-N-[2-(imidazol-1-yl)-ethyl]-benzamide Dihydrochloride Salt]",–,–,–,pKi (CDK2/cyclin A): 7.25; pKi (human CDK4/cyclin D3): 7.77; pIC50 (HCT-116 cell line): 5.49
−6,4,–,–,C=CCN(C)C(=O)c1ccc(Nc2nc(N)c(C(=O)c3c(F)cccc3F)s2)cc1 [Example G27],60,–,–,–
−12,4,–,–,Cc1cccc(Cl)c1NC(=O)c1ccc(Nc2nc(N)c(C(=O)c3c(F)cccc3F)s2)cc1 [Example G15],46,–,–,–
−16,23,–,–,CN(C)CCCCCCNC(=O)c1ccc(Nc2nc(N)c(C(=O)c3c(F)cccc3F)s2)cc1 [Example G99],62,–,–,"HCT-116 % Inhibition at 0.1 μM (HCT-116 cell line; HCT-116, at 0.1 μM): 24%"
–,–,–,–,CC(NC(=O)c1ccc(Nc2nc(N)c(C(=O)c3c(F)cccc3F)s2)cc1)C1CCCCC1 (stereo not shown) [Example G388],–,–,–,"CDK2 % Inhibition at 0.03 μM (CDK2/cyclin A; 0.03 μM compound, 0.03 µM): 3%; CDK4 % Inhibition at 0.03 μM (human CDK4/cyclin D3; 0.03 μM compound, 0.03 µM): 8%; HCT-116 % Inhibition at 0.1 μM (HCT-116 cell line; HCT-116 cells, 0.1 μM compound, 0.1 µM): 9%; HCT-116 % Inhibition at 0.25 μM (HCT-116 cell line; HCT-116 cells, 0.25 μM compound, 0.25 µM): 45%"
–,–,6,34,Nc1nc(Nc2ccc(C(=O)NCCCN(CCO)CCO)cc2)sc1C(=O)c1c(F)cccc1F [Example G339],–,9,48,–
–,–,1,7,CCCCOc1ccc(NC(=O)c2ccc(Nc3nc(N)c(C(=O)c4c(F)cccc4F)s3)cc2)cc1 [Example G205],–,12,52,–
2,7,–,–,CN(CCO)C(=O)c1ccc(Nc2nc(N)c(C(=O)c3c(F)cccc3F)s2)cc1 [Example G17],45,–,–,–
–,–,14,9,Cc1ccc(NC(=O)c2ccc(Nc3nc(N)c(C(=O)c4c(F)cccc4F)s3)cc2)cc1 [Example G197],–,26,61,–
–,–,–,–,"CC1(C)CC(CNC(=O)c2ccc(Nc3nc(N)c(C(=O)c4c(F)cccc4F)s3)cc2)C(C)(C)N1 (stereo not shown) [Example A56, 4-[4-Amino-5-(2,6-difluoro-benzoyl)-thiazol-2-ylamino]-N-(2,2,5,5-tetramethyl-pyrrolidin-3R,S-ylmethyl)-benzamide Dihydrochloride Salt]",–,–,–,pKi (CDK2/cyclin A): 7.17; pKi (human CDK4/cyclin D3): 8.10; pIC50 (HCT-116 cell line): 5.35
−4,12,–,–,CCOCCNC(=O)c1ccc(Nc2nc(N)c(C(=O)c3c(F)cccc3F)s2)cc1 [Example G136],49,–,–,"HCT-116 % Inhibition at 0.1 μM (HCT-116 cell line; HCT-116, at 0.1 μM): 0%"
24,15,–,–,Nc1nc(Nc2ccc(C(=O)Nc3ccc(S(N)(=O)=O)cc3)cc2)sc1C(=O)c1c(F)cccc1F [Example G82],48,–,–,–
–,–,−16,5,CCCN(C(=O)c1ccc(Nc2nc(N)c(C(=O)c3c(F)cccc3F)s2)cc1)C(C)CC (stereo not shown) [Example G356],–,27,50,–
26,14,–,–,CC(=O)Nc1ccc(NC(=O)c2ccc(Nc3nc(N)c(C(=O)c4c(F)cccc4F)s3)cc2)cc1 [Example G66],60,–,–,–
24,6,–,–,Nc1nc(Nc2ccc(C(=O)NC(CO)c3ccccc3)cc2)sc1C(=O)c1c(F)cccc1F (stereo not shown) [Example G160],–,–,–,"HCT-116 % Inhibition at 0.1 μM (HCT-116 cell line; HCT-116, at 0.1 μM): 0%; HCT-116 % Inhibition at 0.25 μM (HCT-116 cell line; HCT-116, at 0.25 μM, 0.25 µM): 87%"
–,–,−9,13,Nc1nc(Nc2ccc(C(=O)NCCOCCO)cc2)sc1C(=O)c1c(F)cccc1F [Example G264],–,22,53,–
–,–,−14,2,Nc1nc(Nc2ccc(C(=O)N3CCC(CO)CC3)cc2)sc1C(=O)c1c(F)cccc1F [Example G390],–,10,40,–
–,–,36,36,Nc1nc(Nc2ccc(C(=O)NCc3ccc(Cl)c(Cl)c3)cc2)sc1C(=O)c1c(F)cccc1F [Example G336],–,12,51,–
–,–,15,15,Nc1nc(Nc2ccc(C(=O)Nc3ccccc3CCO)cc2)sc1C(=O)c1c(F)cccc1F [Example G207],–,15,66,–
–,–,13,8,Nc1nc(Nc2ccc(C(=O)N(CCO)Cc3ccccc3)cc2)sc1C(=O)c1c(F)cccc1F [Example G379],–,31,54,–
–,–,8,22,Nc1nc(Nc2ccc(C(=O)N[C@@H]3CCN(Cc4ccccc4)C3)cc2)sc1C(=O)c1c(F)cccc1F [Example C365],–,34,93,–
8,23,–,–,CNC(=O)C(C)NC(=O)c1ccc(Nc2nc(N)c(C(=O)c3c(F)cccc3F)s2)cc1 (stereo not shown) [Example G192],49,–,–,"HCT-116 % Inhibition at 0.1 μM (HCT-116 cell line; HCT-116, at 0.1 μM): 13%"
